Experimental data taken from PMC6832265 (Molecules, 2019).
“Also recorded” adds a separate entry of the source. Read-outs that look alike come from different tables or passages of the source.

Experiments:
Lewis lung carcinoma = tested on: Lewis lung carcinoma; design: method as in PMID 30903487; conditions: Lewis lung carcinoma models; cited from earlier work
mice = conditions: ref Registry of Toxic Effects of Chemical Substances, cited from earlier work
[1] = molecular target: T1, recombinant Tdp1 (residues 149–608) (Homo sapiens, UniProt Q9NUW8); assay: Intrinsic tryptophan fluorescence quenching binding assay; conditions: 10 µM Tdp1, 20 mM Tris, 250 mM NaCl, pH 8; triplicate
T1 construct: recombinant Tdp1 (residues 149–608) was obtained from GenScript; host or cells: E. coli BL21(DE3)
T1 sequence (Q9NUW8 149-608): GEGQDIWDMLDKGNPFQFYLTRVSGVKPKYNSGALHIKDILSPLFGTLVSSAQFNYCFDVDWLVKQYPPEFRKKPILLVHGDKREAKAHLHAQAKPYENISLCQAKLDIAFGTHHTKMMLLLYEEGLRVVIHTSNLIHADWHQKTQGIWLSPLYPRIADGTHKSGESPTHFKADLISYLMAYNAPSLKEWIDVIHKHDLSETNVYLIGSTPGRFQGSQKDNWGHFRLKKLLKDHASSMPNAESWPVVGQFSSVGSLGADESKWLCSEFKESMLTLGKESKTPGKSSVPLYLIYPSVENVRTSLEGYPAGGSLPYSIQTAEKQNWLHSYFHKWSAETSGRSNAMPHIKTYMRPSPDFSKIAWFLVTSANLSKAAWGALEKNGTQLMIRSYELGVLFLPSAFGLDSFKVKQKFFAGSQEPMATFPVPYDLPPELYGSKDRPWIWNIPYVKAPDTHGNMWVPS

Tdp1 [2] = molecular target: T2, Tdp1 (Homo sapiens, UniProt Q9NUW8); assay: Real-time detection of Tdp1 activity (5'-FAM/3'-BHQ1 oligonucleotide biosensor); type: biochemical; conditions: 1.5 nM Tdp1, 50 nM oligonucleotide substrate, 26 °C
T2 construct: made in house; host or cells: Escherichia coli
T2 sequence (Q9NUW8 whole entry): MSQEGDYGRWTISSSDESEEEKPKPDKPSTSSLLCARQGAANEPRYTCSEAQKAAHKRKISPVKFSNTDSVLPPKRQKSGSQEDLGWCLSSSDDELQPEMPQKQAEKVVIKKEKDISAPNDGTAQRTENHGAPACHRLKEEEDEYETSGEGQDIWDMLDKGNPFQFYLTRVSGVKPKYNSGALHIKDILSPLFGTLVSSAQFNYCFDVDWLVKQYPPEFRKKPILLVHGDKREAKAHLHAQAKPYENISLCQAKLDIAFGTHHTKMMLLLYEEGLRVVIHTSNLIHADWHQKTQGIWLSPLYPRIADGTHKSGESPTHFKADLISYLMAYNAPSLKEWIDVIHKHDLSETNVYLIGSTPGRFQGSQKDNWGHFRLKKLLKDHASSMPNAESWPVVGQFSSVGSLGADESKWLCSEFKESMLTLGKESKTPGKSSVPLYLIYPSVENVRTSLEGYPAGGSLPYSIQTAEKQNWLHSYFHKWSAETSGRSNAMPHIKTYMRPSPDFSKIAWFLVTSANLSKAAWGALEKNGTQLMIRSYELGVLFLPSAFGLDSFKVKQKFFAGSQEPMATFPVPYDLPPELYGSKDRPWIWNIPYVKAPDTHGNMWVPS
Procedure, shortened: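 Recombinant human Tdp1 (E. coli-expressed, 1.5 nM) with 50 nM 16-mer ssDNA 5'-FAM/3'-BHQ1 biosensor in 50 mM Tris-HCl, 50 mM NaCl, 7 mM β-mercaptoethanol, 26 °C; fluorescence (Ex485/Em520) read each minute. Inhibition from linear-phase slope (0–7 min) vs 1.5% DMSO control; IC50 from six-point curves, ≥2 independent experiments.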

[3] = MTT test, intrinsic cytotoxicity; type: cell-based; conditions: human, HeLa cells (cervical carcinoma), compound alone
From the text: First, we studied the intrinsic cytotoxicity of the compounds against HeLa cells (cervical carcinoma). For experiments on cells, we selected compounds which combined high inhibitory activity with good chemical accessibility. The MTT test data are shown in Figure 4 for compounds from both the heteroarylidene-hydrazinotiazole and arylidene-hydrazinotiazole subclasses. […] Heteroarylidene-hydrazinothiazole derivatives (+)- and (−)-16f, containing a bromothiophene residue, also have low toxicity (CC50 about 80 µM), while the 16d pair, containing a nitro group that is a known toxicophore, suppressed cell growth at a concentration of 20 µM.
Analysis of the intrinsic toxicity of the compounds was examined against human cell line HeLa (cervical cancer) using a standard MTT test by colorimetric measurement of the amount of formazan converted from 3-(4,5-dimethylthiazol-2-yl)-2,5-diphenyl-2H-tetrazolium bromide in cells exposed to the compounds. […] After formation of a 30–50% monolayer, tested compounds were added to the medium (the volume of added reagents was 1/100 of the total volume of the culture medium, the amount of DMSO was 1% of the final volume), and the cell culture was monitored for three days. […]

Tdp1 [4] = molecular target: T2, Tdp1; conditions: cited from earlier work
Tdp2 = tested on: Tdp2; design: method as in PMID 28418653; conditions: cited from earlier work
Top1 = tested on: Top1; design: method as in PMID 28418653; conditions: cited from earlier work
HeLa cells = assay: MTT test, combination of Tdp1 inhibitors with topotecan; type: cell-based, human
Description: In order to derive the optimal concentration for the inhibitors to provide the maximum sensitizing effect, but remaining non-toxic, the concentrations with topotecan at 2 µM, were varied.
Since there is no information on the rate and efficiency of the penetration of compounds into the cells, we studied the effect of the order of administration of (+)-17b and topotecan on their synergistic effect.
Analysis of the intrinsic toxicity of the compounds was examined against human cell line HeLa (cervical cancer) using a standard MTT test [51] by colorimetric measurement of the amount of formazan converted from 3-(4,5-dimethylthiazol-2-yl)-2,5-diphenyl-2H-tetrazolium bromide in cells exposed to the compounds. The cells were grown in Iscove’s Modified Dulbecco’s Medium (IMDM), with 40 μg/mL gentamicin, 50 IU/mL penicillin, 50 μg/mL streptomycin (MP Biomedicals), and in the presence of 10% fetal bovine serum (Biolot) in a 5% CO2 atmosphere. After formation of a 30–50% monolayer, tested compounds were added to the medium (the volume of added reagents was 1/100 of the total volume of the culture medium, the amount of DMSO was 1% of the final volume), and the cell culture was monitored for three days. Control cells were grown in the presence of 1% DMSO. The measurements were carried out in three parallel experiments.

| Compound | Kd [1] [µM] | IC50 (Tdp1 [2]) [µM] | also measured |
| --- | --- | --- | --- |
| CC(=O)c1c(O)c(C)c(O)c2c1OC1=CC(=O)/C(=C(/C)NCCCc3cc(C(C)(C)C)c(O)c(C(C)(C)C)c3)C(=O)[C@@]12C [9b] |  |  | metastasis growth (Lewis lung carcinoma): reduces metastasis growth |
| 2,6-diacetyl-7,9-dihydroxy-8,9b-dimethyl-1,3(2H,9bH)-dibenzo-furandione [Usnic acid] |  |  | LD50 (mice; mice): 838 mg/kg; toxicity class (mice): class III toxicity (moderately toxic) |
| CC(=O)C1=C(O)C=C2Oc3c(-c4csc(N/N=C/c5ccc(Br)s5)n4)c(O)c(C)c(O)c3[C@]2(C)C1=O [(−)-16f, (2S)-4-Acetyl-5,11,13-trihydroxy-2,12-dimethyl-10-{2-[(E)-2-[(5-bromothiophen-2-yl)methylidene]hydrazin-1-yl]-1,3-thiazol-4-yl}-8-oxatricyclo[7.4.0.0^2,7]trideca-1(9),4,6,10,12-pentaen-3-one] | 148 ± 9 | 0.043 ± 0.001 | CC50 at 3 days [3]: ~80 µM |
| CC(=O)C1=C(O)C=C2Oc3c(-c4csc(N/N=C/c5ccc(Br)s5)n4)c(O)c(C)c(O)c3[C@@]2(C)C1=O [(+)-16f, (2R)-4-Acetyl-5,11,13-trihydroxy-2,12-dimethyl-10-{2-[(E)-2-[(5-bromothiophen-2-yl)methylidene]hydrazin-1-yl]-1,3-thiazol-4-yl}-8-oxatricyclo[7.4.0.0^2,7]trideca-1(9),4,6,10,12-pentaen-3-one] | 95 ± 11 | 0.088 ± 0.003 | CC50 at 3 days [3]: ~80 µM |
| COc1cnc2c(c1)C(=O)c1c-2n(CCCNC2=NCCS2)c(=O)c2cc([N+](=O)[O-])ccc12 [compound 4] |  |  | IC50 (Tdp1 [4]; read-out: IC50 (Tdp1)): 1 to 12 µM; IC50 (Tdp2): 12 to 37 µM; IC50 (Top1): < 1 µM |
| COc1ccc(/C=N/Nc2nc(-c3c(O)c(C)c(O)c4c3OC3=CC(O)=C(C(C)=O)C(=O)[C@@]34C)cs2)cc1COc1cccc(F)c1 [(+)-17b, (2R)-4-Acetyl-10-{2-[(E)-2-({3-[(3-fluorophenoxy)methyl]-4-methoxyphenyl}methylidene)hydrazin-1-yl]-1,3-thiazol-4-yl}-5,11,13-trihydroxy-2,12-dimethyl-8-oxatricyclo[7.4.0.0^2,7]trideca-1(9),4,6,10,12-pentaen-3-one] | 131 ± 15 | 0.026 ± 0.004 | effect of the order of administration on the synergistic effect with topotecan (HeLa cells; 30 minutes between additions): the simultaneous administration of drugs reduced the synergistic effect; also recorded: led to worse results when compared with simultaneous administration |
| CC1(C)[C@H]2CC=C(COc3ccc4c5c(c(=O)oc4c3)CCC5)[C@@H]1C2 [compound 7] |  |  | IC50 (Tdp1 [4]; read-out: IC50): 0.67 µM |
| CC[C@@]1(O)C(=O)OCc2c1cc1n(c2=O)Cc2cc3c(CN(C)C)c(O)ccc3nc2-1 [topotecan, reference compound] |  |  | CC50 (HeLa cells; Homo sapiens, read-out: CC50 of topotecan alone): 6 µM |
| COc1ccc(/C=N/Nc2nc(-c3c(O)c(C)c(O)c4c3OC3=CC(O)=C(C(C)=O)C(=O)[C@@]34C)cs2)cc1COc1ccc(F)cc1 [(+)-17a, (2R)-4-Acetyl-10-{2-[(E)-2-({3-[(4-fluorophenoxy)methyl]-4-methoxyphenyl}methylidene)hydrazin-1-yl]-1,3-thiazol-4-yl}-5,11,13-trihydroxy-2,12-dimethyl-8-oxatricyclo[7.4.0.0^2,7]trideca-1(9),4,6,10,12-pentaen-3-one] | 212 ± 25 | 0.026 ± 0.008 |  |
| CC(=O)C1=C(O)C=C2Oc3c(-c4csc(N/N=C/c5ccco5)n4)c(O)c(C)c(O)c3[C@]2(C)C1=O [(−)-16k, (2S)-4-Acetyl-5,11,13-trihydroxy-2,12-dimethyl-10-{2-[(E)-2-[(furan-2-yl)methylidene] hydrazin-1-yl]-1,3-thiazol-4-yl}-8-oxatricyclo[7.4.0.0^2,7]trideca-1(9),4,6,10,12-pentaen-3-one] | 250 ± 24 | 0.046 ± 0.024 |  |
| CCCCN(CCCC)CC(=O)Nc1cc(C(F)(F)F)cc2c1SSSSS2 [compound 2] |  |  | IC50 (Tdp1 [4]; read-out: IC50): 0.2 µM |
| CC(=O)C1=C(O)C=C2Oc3c(-c4csc(N/N=C/c5ccc([N+](=O)[O-])s5)n4)c(O)c(C)c(O)c3[C@@]2(C)C1=O [(+)-16d, (2R)-4-Acetyl-5,11,13-trihydroxy-2,12-dimethyl-10-{2-[(E)-2-[(5-nitrothiophen-2-yl)methylidene]hydrazin-1-yl]-1,3-thiazol-4-yl}-8-oxatricyclo[7.4.0.0^2,7]trideca-1(9),4,6,10,12-pentaen-3-one] | 597 ± 98 | 0.07 ± 0.004 |  |
